# The source made the active and inactive calls.
# How the values were obtained:
# [1] = biological target: T1, DNA repair protein RAD52 homolog (Homo sapiens, UniProt P43351); format: functional, biochemical
# T1 sequence (P43351 whole entry): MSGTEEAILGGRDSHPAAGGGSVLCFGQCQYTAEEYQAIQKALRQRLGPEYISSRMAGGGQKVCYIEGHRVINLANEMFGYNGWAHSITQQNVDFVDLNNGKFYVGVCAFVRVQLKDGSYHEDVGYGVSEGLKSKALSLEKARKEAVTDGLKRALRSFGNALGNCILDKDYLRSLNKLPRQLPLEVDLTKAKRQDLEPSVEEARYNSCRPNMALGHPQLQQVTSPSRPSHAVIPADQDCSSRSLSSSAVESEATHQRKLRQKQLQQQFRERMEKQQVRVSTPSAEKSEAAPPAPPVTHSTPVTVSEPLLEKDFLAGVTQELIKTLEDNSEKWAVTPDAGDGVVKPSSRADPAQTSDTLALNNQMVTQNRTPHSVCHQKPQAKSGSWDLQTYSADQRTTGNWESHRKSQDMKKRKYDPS
# [2] = ZM109 Env clade C HIV-1 fusion inhibitors, dose response, HeLa effector, CEM target cells, luciferase, cherry-pick (AID 652058); format: functional, cell-based
# [3] = off-target signal loss in HeLa-CEM21 co-culture – HeLa F-luc CTL cells, cherry-picked, counter-screen for HIV-1 Env fusion inhibitor project, dose response (AID 652040); format: functional, cell-based;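 also: potency for signal decrease marking cytotoxic or nonspecific inhibition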
# [4] = inhibitors of clade B AD8 Env fusion, dose response, cell-based, cherry-pick (AID 652062); format: functional;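 also: luciferase signal from cell-cell fusion driven by HIV-1 clade B AD8 Env; potency is for inhibitors of fusion seen as a drop in luminescence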
# [5] = inhibitors of HIV Env-driven cell fusion, dose response, cherry-pick (AID 652057); format: functional, cell-based
# [6] = biological target: T2, Sentrin-specific protease 8 (Homo sapiens, UniProt Q96LD8); format: functional
# T2 sequence (Q96LD8 whole entry): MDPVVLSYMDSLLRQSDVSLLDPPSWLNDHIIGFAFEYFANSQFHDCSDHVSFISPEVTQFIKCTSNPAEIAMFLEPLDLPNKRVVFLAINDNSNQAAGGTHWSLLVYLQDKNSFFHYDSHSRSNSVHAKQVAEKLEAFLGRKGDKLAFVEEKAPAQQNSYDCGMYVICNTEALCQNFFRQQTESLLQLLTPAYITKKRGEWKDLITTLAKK
# [7] = biological target: Genome polyprotein (dengue virus type 2, UniProt P29990); test: Dengue-2 NS5 methyltransferase inhibitors, primary screen, biochemical, confirmation dose response (AID 588689); format: functional
# Genome polyprotein, sequence (P29990 2492-3391 limits assumed): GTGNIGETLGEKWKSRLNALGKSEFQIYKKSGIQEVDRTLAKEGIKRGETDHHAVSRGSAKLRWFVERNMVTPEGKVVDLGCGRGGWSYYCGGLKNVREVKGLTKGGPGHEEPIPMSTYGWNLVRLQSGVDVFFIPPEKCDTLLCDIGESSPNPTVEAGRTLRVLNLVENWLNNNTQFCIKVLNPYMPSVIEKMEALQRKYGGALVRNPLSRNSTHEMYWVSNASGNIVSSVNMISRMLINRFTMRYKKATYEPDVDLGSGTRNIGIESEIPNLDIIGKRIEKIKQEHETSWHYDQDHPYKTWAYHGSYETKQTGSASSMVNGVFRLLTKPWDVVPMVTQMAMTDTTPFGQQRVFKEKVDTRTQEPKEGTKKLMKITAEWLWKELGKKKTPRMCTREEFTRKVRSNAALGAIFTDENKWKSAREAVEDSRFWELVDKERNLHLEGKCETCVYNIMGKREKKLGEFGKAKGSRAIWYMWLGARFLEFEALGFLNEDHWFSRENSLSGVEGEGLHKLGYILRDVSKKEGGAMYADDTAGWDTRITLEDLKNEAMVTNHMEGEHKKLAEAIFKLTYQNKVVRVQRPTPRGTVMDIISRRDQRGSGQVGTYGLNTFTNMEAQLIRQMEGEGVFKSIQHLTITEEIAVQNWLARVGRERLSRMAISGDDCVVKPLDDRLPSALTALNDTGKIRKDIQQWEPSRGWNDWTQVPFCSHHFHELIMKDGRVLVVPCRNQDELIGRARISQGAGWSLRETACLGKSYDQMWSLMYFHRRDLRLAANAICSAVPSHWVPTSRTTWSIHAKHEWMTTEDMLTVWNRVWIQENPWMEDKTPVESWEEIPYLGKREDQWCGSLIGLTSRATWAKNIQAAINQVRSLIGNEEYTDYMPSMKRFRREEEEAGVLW
# [8] = biological target: T2, Sentrin-specific protease 8; format: functional; remark: listed apart in the source
# [9] = biological target: T3, Oxysterols receptor LXR-beta (Homo sapiens, UniProt P55055); test: LXR agonists, Gal4 luciferase reporter, dose response, counter-screen for ssDAF-12 agonist project, cell-based, luminescence, HEK293, S. stercoralis campaign (AID 720737); format: functional; settings: read-out: IC50 (the source's name)
# T3 sequence (P55055 whole entry): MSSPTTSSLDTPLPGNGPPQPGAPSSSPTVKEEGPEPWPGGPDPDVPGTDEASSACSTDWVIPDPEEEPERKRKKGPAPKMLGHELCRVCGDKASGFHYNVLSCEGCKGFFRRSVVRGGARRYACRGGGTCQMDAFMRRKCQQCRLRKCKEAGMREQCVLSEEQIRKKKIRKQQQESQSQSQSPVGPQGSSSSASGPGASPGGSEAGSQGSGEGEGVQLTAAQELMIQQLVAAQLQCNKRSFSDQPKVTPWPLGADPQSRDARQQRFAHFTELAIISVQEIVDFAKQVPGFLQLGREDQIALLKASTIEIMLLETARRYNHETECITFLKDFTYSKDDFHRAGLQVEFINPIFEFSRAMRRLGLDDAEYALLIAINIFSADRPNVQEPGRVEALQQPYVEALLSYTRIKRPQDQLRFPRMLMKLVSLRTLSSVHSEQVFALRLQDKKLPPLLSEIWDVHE
# [10] = Luminescence-based cell-based high throughput dose response assay to identify activators of the DAF-12 from the parasite S. stercoralis (ssDAF-12).; format: functional
# [11] = biological target: T4, Aminopeptidase N (Plasmodium falciparum FcB1/Columbia, UniProt O96935); test: P. falciparum M1AAP inhibitors, biochemical, fluorogenic H-Leu-NHMec substrate, 1536-well (AID 1445); parameters: species or system Plasmodium falciparum 3D7, 3D7
# T4 sequence (O96935 whole entry): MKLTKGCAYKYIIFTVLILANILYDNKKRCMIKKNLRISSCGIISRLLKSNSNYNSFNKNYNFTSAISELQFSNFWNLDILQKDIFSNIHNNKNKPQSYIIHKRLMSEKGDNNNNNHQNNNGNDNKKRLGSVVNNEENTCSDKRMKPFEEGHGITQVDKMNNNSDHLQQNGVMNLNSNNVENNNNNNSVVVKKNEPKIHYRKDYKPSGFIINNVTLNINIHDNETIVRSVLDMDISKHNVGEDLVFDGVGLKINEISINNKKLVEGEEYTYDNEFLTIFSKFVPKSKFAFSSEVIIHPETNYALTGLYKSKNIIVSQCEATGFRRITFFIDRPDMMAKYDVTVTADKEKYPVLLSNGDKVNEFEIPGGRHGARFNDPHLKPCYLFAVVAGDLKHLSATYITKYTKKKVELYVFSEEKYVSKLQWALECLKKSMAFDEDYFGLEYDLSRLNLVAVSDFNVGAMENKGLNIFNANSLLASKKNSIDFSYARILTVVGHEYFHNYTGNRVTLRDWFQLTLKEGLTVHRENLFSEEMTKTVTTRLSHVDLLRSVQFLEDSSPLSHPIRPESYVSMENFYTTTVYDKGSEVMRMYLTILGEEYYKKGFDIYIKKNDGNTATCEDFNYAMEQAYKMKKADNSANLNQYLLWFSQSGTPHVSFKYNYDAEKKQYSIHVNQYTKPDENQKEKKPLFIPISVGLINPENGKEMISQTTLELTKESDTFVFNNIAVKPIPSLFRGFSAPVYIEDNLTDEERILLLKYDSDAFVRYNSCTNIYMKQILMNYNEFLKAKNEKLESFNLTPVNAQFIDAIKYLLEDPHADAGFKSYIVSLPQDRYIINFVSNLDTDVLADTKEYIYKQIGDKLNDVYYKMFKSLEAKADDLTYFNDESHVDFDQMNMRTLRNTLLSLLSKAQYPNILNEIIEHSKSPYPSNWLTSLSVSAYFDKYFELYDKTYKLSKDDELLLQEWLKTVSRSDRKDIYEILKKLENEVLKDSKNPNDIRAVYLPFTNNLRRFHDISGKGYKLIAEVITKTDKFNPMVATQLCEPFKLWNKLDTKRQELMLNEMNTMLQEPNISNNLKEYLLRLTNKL
# [12] = biological target: T5, Bcl-2-like protein 10 (Homo sapiens, UniProt Q9HD36); test: displacers of TR3 peptide from Bcl-B, primary screen, selectivity assay for Bfl-1 inhibitor project, biochemical, fluorescence polarization, FITC-TR3 peptide (AID 748);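 also: fluorescence polarization from a fluorescein-labelled TR3 peptide binding purified Bcl-B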
# T5 sequence (Q9HD36 whole entry): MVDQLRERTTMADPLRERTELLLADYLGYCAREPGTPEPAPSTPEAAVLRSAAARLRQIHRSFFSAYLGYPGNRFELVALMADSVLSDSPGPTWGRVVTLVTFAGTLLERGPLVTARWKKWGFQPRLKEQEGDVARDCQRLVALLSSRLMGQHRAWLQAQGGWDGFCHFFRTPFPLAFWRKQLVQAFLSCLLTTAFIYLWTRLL
# [13] = Luminescence Cell-Based Dose Response HTS to Identify Activators of Luciferase Translation or Activity in H4 […] Cells. [Related pubchem assays: 1829 (Project Summary), 1814 (Primary HTS)]; format: functional
# [14] = Luminescence Cell-Based Dose Response to Identify Activators of 5'UTR Stem-Loop Driven Prion Protein mRNA Translation in H4-C Neuroglioblastoma Cells. [Related pubchem assays: 1829 (Project Summary), 1814 (Primary HTS)]; format: functional
# [15] = Luminescence Cell-Based Dose Confirmation to Identify Activators of 5'UTR Stem-Loop Driven Alpha-Synuclein mRNA Translation in H4 Neuroglioblastoma Cells. [Related pubchem assays: 1829 (Project Summary), 1814 (Primary HTS)]; format: functional
# [16] = Luminescence Cell-Based Dose Response to Identify Activators of Luciferase Translation or Activity in H4-C Neuroglioblastoma Cells. [Related pubchem assays: 1829 (Project Summary), 1814 (Primary HTS)]; format: functional
smiles,measurement,setting,value
CCOC(=O)N1CCN(C(S)=Nc2ccc3nc(N4CCN(CC)CC4)cc(C)c3c2)CC1,AC50,[1],15 µM (active)
COc1ccc([C@@H]2[C@@H]3C(=O)N(C(C)(C)C)C(=O)[C@@H]3[C@]3(CC(C)C)C(=O)N(c4cccc(Br)c4)C(=O)N23)cc1,AC50,[2],< 260 nM (active)
same,AC50,[3],< 260 nM (active)
same,AC50,[4],< 260 nM (active)
same,AC50,[5],< 260 nM (active)
COC/C=C/C1=CC2=CC(=O)C(C)(OC(=O)c3cnc4ccccc4n3)C(=O)C2=CN1C1CC1 (stereo unspecified),IC50,[6],6.36 µM (active)
same,IC50,[7],> 100 µM (active)
same,IC50,[8],16.6 µM (active)
COc1ccc(CSc2nnc3nc(O)cc(N)n23)cc1,EC50,[9],> 67.6 µM (inactive)
same,IC50,[10],> 67.6 µM (inactive)
Cc1ccc(S(=O)(=O)Nc2nc3ccc(S(=O)(=O)N4CCCC4)cc3s2)cc1,IC50,[11],53.5 µM (active)
Cc1cccc(OCC(=O)Nc2ccc(S(=O)(=O)N3CCCC3)cc2)c1,IC50,[12],> 100 µM (inactive)
Cc1nc2c(C(=O)N3CCCCC3)cnn2c(C)c1Cc1ccccc1F,EC50,[13],< 100 nM (active)
same,EC50,[14],570 nM (active)
same,EC50,[15],> 12 µM (not active)
same,EC50,[16],267 nM (active)
